Experimental data from patent US6384074B1, “Cell growth activating composition containing compound having labdane structure” (Takasago International Corporation, priority 1998, dated 2002).
One block for each compound: values may come before it.

Tests used:
[1] = system: Human-derived normal skin fibroblasts (NB1RGB); assay: Test of cell activating activity (fibroblast proliferation); type: cell-based; details: relative to ethanol control (100)
Procedure: Human-derived normal skin fibroblasts (NB1RGB: Institute of Physical and Chemical Research) were suspended into DMEM containing 10% FBS to give a concentration of 20,000 cells/ml, and 5 ml each of this cellular suspension was introduced into each of 25 cm^2 bottles, cultured at 37° C. in the presence of 5% carbon dioxide for 24 hours. To each bottle, was added 10 micro-liter (0.2%) of the ethanol solution containing the compound to give the final concentration shown in Table 8. The cells were cultured for an additional 3 days. After 3 days the old medium was discarded and 5 ml fresh medium was added, and the sample was further added thereto. After this exchange of the medium, the cells were further cultured for another 3 days. Then cells were removed with trypsin and the number of cells in each bottle was counted with a Coultar counter. Simultaneously, as the control, only ethanol was added and the NB1RGB cells were cultured and the number of cells were counted in the same manner. The number of cells in each bottle to which the sample had been added was determined as a relative value to the number (as 100) of cells in the control after cultured, and the results are shown in Table 8.

B16 melanoma cells [2] = assay: Melanin formation prevention test (melanin production and cell proliferation); type: cell-based; details: for Degree of cell proliferation: relative to ethanol control
Procedure: B16 melanoma cells were suspended (10,000 cells/ml) in DMEM (Dulbecco's modified eagle medium) containing 10% FBS (fetal bovine serum) and 8 ml of the suspension was added to a cell culture bottle with a 25 cm^2 bottom surface area, and cultured at 37° C. in the presence of 5% carbon dioxide for 3 days. After 3 days of culture, the old medium was exchanged with 8 ml of fresh medium. 40 micro-liters of a sample solution, in which compounds of the present invention had been dissolved in ethanol to give a final concentration shown in the table, were further added thereto. As the control, ethanol only was added. After the medium change, the cells were further cultured for 3 days under the same conditions. After culture was finished, the medium was removed, and the cells were recovered by treatment with trypsin (DIFCO) and suspended in 4 ml of phosphate buffered saline (PBS) and a predetermined amount ( 1/40) of this suspension was used to measure the number of cells in a Coultar counter (Sysmex Co.) to determine the degree of cell proliferation.
The degree of cell proliferation was determined according to the following equations:
Degree of cell proliferation (%)=(number of cells in sample)/(number of cells in control)×100
The remainder of the cell suspension was centrifuged and then washed with 5% trichloroacetic acid, then with ethanol/ethyl ether (3:1 by volume), and with ethyl ether and the cells were dried, and 2N—NaOH was added thereto to dissolve (melanin in) the cells under heating at 70° C. and measured for its optical density (OD) at 420 nm. Using a calibration curve of synthetic melanin, the amount of melanin/million cells was determined from the OD and the degree of inhibition of melanin production was determined according to the following equation:
Degree of inhibition of melanin (%)=(amount of melanin in control−amount of melanin in sample)/(amount of melanin in control)×100

B16 melanoma cells [3] = assay: Combination test with existing tyrosinase inhibitors (method of Test Example 1); type: cell-based; details: alone
Procedure: B16 melanoma cells were suspended (10,000 cells/ml) in DMEM (Dulbecco's modified eagle medium) containing 10% FBS (fetal bovine serum) and 8 ml of the suspension was added to a cell culture bottle with a 25 cm^2 bottom surface area, and cultured at 37° C. in the presence of 5% carbon dioxide for 3 days. After 3 days of culture, the old medium was exchanged with 8 ml of fresh medium. 40 micro-liters of a sample solution, in which compounds of the present invention had been dissolved in ethanol to give a final concentration shown in the table, were further added thereto. As the control, ethanol only was added. After the medium change, the cells were further cultured for 3 days under the same conditions. […] Degree of cell proliferation (%)=(number of cells in sample)/(number of cells in control)×100 […] Using a calibration curve of synthetic melanin, the amount of melanin/million cells was determined from the OD and the degree of inhibition of melanin production was determined according to the following equation: Degree of inhibition of melanin (%)=(amount of melanin in control−amount of melanin in sample)/(amount of melanin in control)×100 […]

[4] = system: mushroom-derived tyrosinase; assay: Mushroom tyrosinase inhibition test; type: biochemical; details: L-tyrosine substrate, 37° C. 30 minutes
Procedure: After reaction, the absorbance (OD) at a wavelength of 490 nm was measured and the degree of inhibition of tyrosinase reaction was determined according to the following equation. […] Sample: The buffer, the enzyme solution, the substrate solution and the sample solution Sample-free: The buffer, the enzyme solution and the substrate solution Blank: The buffer and the enzyme solution

[5] = molecular target: T1, tyrosinase in B16 melanoma cells (Mus musculus, UniProt P11344); assay: Test of tyrosinase inhibition in B16 melanoma cells (crude enzyme solution); type: biochemical; details: L-DOPA substrate, 37° C. 3 hours; for Degree of inhibition of tyrosinase in B16 melanoma cells: 25 ppm
T1 construct: the resulting supernatant was used as a crude enzyme solution; endogenous in cells; host or cells: B16 melanoma cells (Triton X100 lysate, sonicated, 11,000 G supernatant)
T1 sequence (P11344 19-533): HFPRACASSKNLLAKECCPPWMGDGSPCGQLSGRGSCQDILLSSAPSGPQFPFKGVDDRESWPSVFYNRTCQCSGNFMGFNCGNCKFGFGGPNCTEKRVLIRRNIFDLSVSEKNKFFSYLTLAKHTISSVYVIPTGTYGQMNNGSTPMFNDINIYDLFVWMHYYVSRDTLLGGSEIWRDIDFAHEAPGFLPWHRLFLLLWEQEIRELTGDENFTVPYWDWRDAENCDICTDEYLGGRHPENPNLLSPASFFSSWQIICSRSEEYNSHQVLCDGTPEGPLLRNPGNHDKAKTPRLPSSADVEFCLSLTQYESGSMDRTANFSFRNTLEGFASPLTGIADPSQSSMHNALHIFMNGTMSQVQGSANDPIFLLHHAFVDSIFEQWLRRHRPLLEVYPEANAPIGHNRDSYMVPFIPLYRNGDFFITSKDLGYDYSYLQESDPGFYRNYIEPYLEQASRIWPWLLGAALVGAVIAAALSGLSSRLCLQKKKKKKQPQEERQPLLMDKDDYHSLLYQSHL
Procedure: B16 melanoma cells were cultured for 3 days in DMEM containing 10% FBS at 37° C. in the presence of 5% carbon dioxide. The cells proliferated after culture were recovered by treatment with trypsin, then suspended in PBS containing 0.1% Triton X100 at a density of ten million cells/ml and disrupted by sonication. The product obtained was centrifuged at 11,000 G for 20 minutes, and the resulting supernatant was used as a crude enzyme solution. Added thereto was 0.2 ml of crude enzyme solution. The mixture was preliminarily kept at 37° C. for 5 minutes, and 0.2 ml L-DOPA solution (0.5 mg/ml) was added as the substrate, and the mixture was kept at 37° C. for 3 hours.

[6] = system: Bacillus subtilis PCI 219 IFO 3134; assay: Anti-bacterial activity test, agar medium dilution method; type: cell-based; details: Bs-1
Procedure: (§1) The aerobic microorganisms were examined in an agar medium dilution method and the anaerobic microorganisms were examined in a liquid medium dilution method under anaerobic culture conditions. Muller Hinton agar medium (DIFCO) was heated and dissolved and 10 ml of the medium was introduced into each test tube, sterilized and used. The sample was prepared by dissolving in ethanol and the resulting ethanol solution was diluted 2-fold serially with ethanol, and 100 micro-liters of sample solution were added to 10 ml of each dissolved agar medium, then stirred, introduced into a Petri dish of 9 cm in diameter, and solidified at room temperature. Each test microorganism in a well grown slant was inoculated via one loop of platinum into 10 ml Muller Hinton broth (DIFCO) and cultured with shaking at 27° C. for 24 hours and used as a microbial fluid. This fluid was diluted at 10^8 CFU (Colony forming unit)/ml, and 5 micro-liters of the diluted fluid were inoculated onto the agar and cultured at 37° C. overnight. Inoculation of the microorganism was conducted using microplanter MIT-P for 27 tubes test microorganisms (Sakuma Seisakusho K. K.).

[7] = system: Corynebacterium minutissimum ATCC 23348; assay: as above; type: cell-based; details: Cm-1
Procedure: as §1

[8] = system: Corynebacterium xerosis JCM 1324; assay: as above; type: cell-based; details: Cx-2
Procedure: as §1

[9] = system: Malassezia furfur IFO 0656; assay: as above; type: cell-based; details: Mf-1
Procedure: as §1

[10] = system: Staphylococcus aureus IFO 12732; assay: as above; type: cell-based; details: Sa-3
Procedure: as §1

[11] = system: Staphylococcus epidermidis JCM 2414; assay: as above; type: cell-based; details: Se-1
Procedure: as §1

[12] = system: Staphylococcus epidermidis var. H-6; assay: as above; type: cell-based; details: Se-2
Procedure: as §1

[13] = 0.4 ppm, Table 4, combined use with ellagic acid
[14] = 0.4 ppm, Table 2, combined use with arbutin

SMILES: O=C(O)CO [Glycolic acid, reference compound]
- Degree of cell proliferation of fibroblasts ([1]; 4.0 ppm): 120%

- Degree of inhibition of mushroom tyrosinase ([4]; 100 ppm): 29%
- inhibition at 100 ppm ([5]; 100 ppm, read-out: Degree of inhibition of tyrosinase in B16 melanoma cells): 35%
SMILES: OC[C@H]1O[C@@H](Oc2ccc(O)cc2)[C@H](O)[C@@H](O)[C@@H]1O [Arbutin, reference compound]
- Degree of cell proliferation (B16 melanoma cells [2]; 6.3 ppm): 100%
- inhibition at 6.3 ppm (B16 melanoma cells [2]; Mus musculus, 72 h, 6.3 ppm, 3 days, read-out: Degree of melanin inhibition): 74%
- Degree of cell proliferation (B16 melanoma cells [3]; 0.8 ppm, Table 2, combined use with arbutin): 89%
- inhibition at 0.8 ppm (B16 melanoma cells [3]; Mus musculus, B16, 0.8 ppm, Table 2, combined use with arbutin, read-out: Degree of melanin inhibition): 22%

SMILES: CCOC(=O)CC(C)CCC1=C(C)CCC2C(C)(C)CCCC12C (centres unmarked) [Compound 3, labd-8-en-15-oic acid ethyl ester]
- Degree of melanin inhibition (B16 melanoma cells [2]; 6.3 ppm, 3 days): 74%
- Degree of cell proliferation (B16 melanoma cells [2]; 6.3 ppm): 115%
- Degree of cell proliferation of fibroblasts ([1]; 8.0 ppm): 134%

- Degree of inhibition of mushroom tyrosinase ([4]; 25 ppm): 0%
- Degree of inhibition of tyrosinase in B16 melanoma cells [5]: 0%
- MIC [6]: 12.5 ppm
- MIC [7]: 12.5 ppm
- MIC [8]: 12.5 ppm
- MIC [9]: 6.3 ppm
- MIC [10]: 12.5 ppm
- MIC [11]: 6.3 ppm
- MIC [12]: 6.3 ppm
SMILES: C=C1CCC2C(C)(C)CCCC2(C)C1CCC(C)CC(=O)O (centres unmarked) [Compound 7, labd-8(17)-en-15-oic acid]
- Degree of melanin inhibition (B16 melanoma cells [2]; 6.3 ppm, 3 days): 79%
- Degree of cell proliferation (B16 melanoma cells [2]; 6.3 ppm): 111%
- Degree of cell proliferation (B16 melanoma cells [3]; [13]): 111%
- Degree of melanin inhibition (B16 melanoma cells [3]; [13]): 30%
- Degree of cell proliferation of fibroblasts ([1]; 8.0 ppm): 128%

SMILES: CCOC(=O)CC(C)CCC1C(C)=CCC2C(C)(C)CCCC12C (centres unmarked) [Compound 6, labd-7-en-15-oic acid ethyl ester]
- Degree of melanin inhibition (B16 melanoma cells [2]; 6.3 ppm, 3 days): 74%
- Degree of cell proliferation (B16 melanoma cells [2]; 6.3 ppm): 109%
- Degree of cell proliferation of fibroblasts ([1]; 8.0 ppm): 134%

SMILES: O=c1oc2c(O)c(O)cc3c(=O)oc4c(O)c(O)cc1c4c23 [Ellagic acid, reference compound]
- Degree of cell proliferation (B16 melanoma cells [2]; 3.1 ppm): 98%
- inhibition at 3.1 ppm (B16 melanoma cells [2]; Mus musculus, 72 h, 3.1 ppm, 3 days, read-out: Degree of melanin inhibition): 68%
- Degree of cell proliferation (B16 melanoma cells [3]; 1.6 ppm, Table 4, combined use with ellagic acid): 98%
- inhibition at 1.6 ppm (B16 melanoma cells [3]; Mus musculus, B16, 1.6 ppm, Table 4, combined use with ellagic acid, read-out: Degree of melanin inhibition): 17%

SMILES: C=C1CCC2C(C)(C)CCCC2(C)C1CCC(C)CC(=O)OCC (centres unmarked) [Compound 9, labd-8(17)-en-15-oic acid ethyl ester]
- Degree of melanin inhibition (B16 melanoma cells [2]; 6.3 ppm, 3 days): 61%
- Degree of cell proliferation (B16 melanoma cells [2]; 6.3 ppm): 103%
- Degree of cell proliferation of fibroblasts ([1]; 8.0 ppm): 127%

- Degree of inhibition of mushroom tyrosinase ([4]; 25 ppm): 0%
- Degree of inhibition of tyrosinase in B16 melanoma cells [5]: 0%
- MIC [6]: 12.5 ppm
- MIC [7]: 6.3 ppm
- MIC [8]: 12.5 ppm
- MIC [9]: 6.3 ppm
- MIC [10]: 12.5 ppm
- MIC [11]: 12.5 ppm
- MIC [12]: 12.5 ppm
SMILES: CC1=CCC2C(C)(C)CCCC2(C)C1CCC(C)CC(=O)O (centres unmarked) [Compound 4, labd-7-en-15-oic acid]
- Degree of melanin inhibition (B16 melanoma cells [2]; 6.3 ppm, 3 days): 87%
- Degree of cell proliferation (B16 melanoma cells [2]; 6.3 ppm): 109%
- Degree of cell proliferation (B16 melanoma cells [3]; [14]): 115%
- Degree of melanin inhibition (B16 melanoma cells [3]; [14]): 28%
